For one assay, the system named is HL260 cell. Nature of the assay: Apoptosis induction / DNA fragments percentage in HL260 cells. In kind it is cell-based. The following applies: for DNA fragments percentage: n 4. An excerpt:
(§1) In order to investigate catalpol and the Rehmannia glutinasa Libosch. extract according to the present invention for their effect of inducing apoptosis in leukemia cells as well as the mechanism, bone marrows and HL260 cells from 15 patients with acute nonlymphocytic leukemia (ANLL) were mixed with catalpol and co-cultivated for 24 hr, and then different test methods including cytomorphologic means, DNA gel electrophoresis and DNA fragments percentage analysis were adopted to observe the effect on apoptosis in leukemia cells.

Assay [1] has as its system acute nonlymphocytic leukemia (ANLL) cell. Nature of the assay: Apoptosis induction / DNA fragments percentage in ANLL bone marrow cells. In kind it is cell-based, human. The conditions noted are these: for DNA fragments percentage: n 15.
From the text: as §1

The subject of assay [2] is Spontaneous Hyperglycemic KK Mice. Nature of the assay: Blood glucose in spontaneous hyperglycemic KK mice (type II diabetes model). The format is in vivo. The following applies: 500 mg/kg intragastric once a day. On the procedure: Forty male and female KK diabetes mice weighing about 40 g were separately housed at a temperature of […] and fed on a fat-heavy diet and arbitrary amount of water. After being fast food but not fast water for 2 hr, 10 μl blood collected from the tail veins was tested for blood glucose values, and mice having blood glucose value ≧8.0 mmol/L were selected.
The mice obtained from the above step were randomly divided into groups labeled as model control, low-dose A, mid-dose A, high-dose A, DD, B, C, D, E and F. Subsequently, intragastric administration was performed once a day for 15 consecutive days. Blood glucose values before administration, and at one hour after administration for 5 days, 10 day and 15 days (fast food but not fast water for two hours after last administration) were tested respectively, and the results were as follows: […]

Assay [3] deals with Alloxan-Induced Hyperglycemic Mice. The assay can be described thus: Blood glucose in alloxan-induced hyperglycemic mice. The format is in vivo, Kunming mice. The following applies: 500 mg/Kg intragastric daily. As to the method:
Male Kunming mice weighing 25-29 g
Raising condition: The mice were housed in a laboratory animal room of 2nd grade that was ventilated regularly with the temperature controlled at 20-24° C.
Male mice were selected and firstly fasted for 6 hr, and alloxan was injected into tail vein at a dose of 60 mg/kg. After 72 hr, the mice having blood glucose values […] were selected as experimental animals and grouped.
The alloxan-induced hyperglycemic mice were randomly divided into groups labeled as normal control, model control, low-dose A, mid-dose A, high-dose A, DD, B, C, D, E and F. Subsequently, intragastric administration was performed for 15 consecutive days. 16 hours after the last administration, the mice were fasted for 8 hr. Blood glucose values before administration, and at 1 hour after administration for 5 days, 10 day and 15 days were tested respectively on blood collected from the inguinal vein, and the results were as follows: […]

A further assay has as its system bcl22. Nature of the assay: Immunohistochemical protein expression of gene bcl22 in bone marrow cells. The format is cell-based, human. The following applies: bone marrow cells before and after treatment; immunohistochemical method.
From the text: as §1

Setting [4] is: table section 'after treating with the extract for 24 hrs', 10 μg · ml^−1.
The mark [5] stands for this setting: table section 'at 24 hrs after treatment with catalpol', 10 μg · ml^−1.
Where [6] appears, read: table section 'after treating with the extract for 24 hrs', 10 − 7 mol · L^−1.
Setting [7] is: table section 'at 24 hrs after treatment with catalpol', 10 − 7 mol · L^−1.
The mark [8] stands for this setting: co-cultivated 24 hr, cytomorphology, DNA gel electrophoresis, DNA fragments percentage.

Experimental findings from patent publication US9770479B2, “Extract of Rehmannia glutinasa Libosch for reducing blood sugar, reducing blood fat, treating leukemia, and preparation method and uses thereof” (priority 2007, dated 2017) are described below.

Marks after values point to notes of the source that are not given here.

`Nc1ccn([C@@H]2O[C@H](CO)[C@@H](O)[C@@H]2O)c(=O)n1` [Ara2c]: the DNA fragments percentage in the assay with HL260 cell (setting [4]) amounted to 27.0 ± 1.1%; with HL260 cell (setting [5]) it was 28.2 ± 1.4%; in assay [1] (setting [4]), 39.7 ± 7.9%; in assay [1] (setting [5]), 40.1 ± 8.2%.
`CN(C)C(=N)NC(=N)N` [DD, dimethyl diguanidine]: the “Blood Glucose Value” in assay [2] (0 day (before administration)) was 13.36 ± 2.85 mmol/L; in assay [2] (5 days), 11.16 ± 3.19 mmol/L; in assay [2] (10 days), 10.03 ± 2.11 mmol/L; in assay [2] (15 days), 8.84 ± 4.51 mmol/L; in assay [3] (0 day (before administration)) it was 19.7 mmol/L; in assay [3] (5 days), 12.5** mmol/L. Also, the “Blood Glucose Value” in assay [3] (10 days) was 13.2** mmol/L; in assay [3] (15 days) it was 14.0** mmol/L.
For `COC(=O)C[C@](O)(CCCC(C)(C)O)C(=O)O[C@@H]1C(OC)=C[C@]23CCCN2CCc2cc4c(cc2[C@H]13)OCO4` [HHT], the DNA fragments percentage is reported as 25.3 ± 1.0% in the assay with HL260 cell (setting [6]), 26.1 ± 1.2% in the assay with HL260 cell (setting [7]), 36.2 ± 5.0% in assay [1] (setting [6]) and 38.1 ± 5.1% in assay [1] (setting [7]).
For the molecule `OC[C@H]1O[C@@H](O[C@@H]2OC=C[C@H]3[C@H](O)[C@@H]4O[C@]4(CO)[C@@H]23)[C@H](O)[C@@H](O)[C@@H]1O` [catalpol], the induction of apoptosis result (in the assay on HL260 cell (setting [8]); in assay [1] (setting [8])) was “able to induce apoptosis” each time. The “protein expression of gene bcl22” value with bcl22 is listed as “obviously lowered”.
